Test: Case report: blood glucose levels in pregnant with gestational diabetes given sesame oil and Nigella sativa oil
Type: in vivo, human
Method: A pregnant person diagnosed with gestational diabetes and treated with […] was administered daily with 5 ml sesame oil 100% w/v ([…]) and then co-administered with 5 ml sesame oil 100% w/v (Naissance) and 5 ml 100% w/v Nigella sativa oil (Better Flex). During oil treatment glucamin was not administered.
Blood glucose levels (mg/dL) were determined at the indicated hours.

## NC(=O)CC[C@H](N)C(=O)O [glutamin]
6 AM, 10 Sep. 2020
  Blood glucose levels: 172 mg/dL
6 AM, 11 Sep. 2020
  Blood glucose levels: 125 mg/dL
6 AM, 12 Sep. 2020
  Blood glucose levels: 101 mg/dL
6 AM, 13 Sep. 2020
  Blood glucose levels: 113 mg/dL
6 AM, 14 Sep. 2020
  Blood glucose levels: 94 mg/dL
6 AM, 15 Sep. 2020
  Blood glucose levels: 158 mg/dL
6 AM, 16 Sep. 2020
  Blood glucose levels: 148 mg/dL
6 AM, 17 Sep. 2020
  Blood glucose levels: 99 mg/dL
6 AM, 18 Sep. 2020
  Blood glucose levels: 94 mg/dL
11 AM, 10 Sep. 2020
  Blood glucose levels: 154 mg/dL
11 AM, 11 Sep. 2020
  Blood glucose levels: 109 mg/dL
11 AM, 12 Sep. 2020
  Blood glucose levels: 88 mg/dL
11 AM, 13 Sep. 2020
  Blood glucose levels: 84 mg/dL
11 AM, 14 Sep. 2020
  Blood glucose levels: 90 mg/dL
11 AM, 15 Sep. 2020
  Blood glucose levels: 159 mg/dL
11 AM, 17 Sep. 2020
  Blood glucose levels: 124 mg/dL
11 AM, 18 Sep. 2020
  Blood glucose levels: 84 mg/dL
15 PM, 10 Sep. 2020
  Blood glucose levels: 122 mg/dL
15 PM, 11 Sep. 2020
  Blood glucose levels: 126 mg/dL
15 PM, 12 Sep. 2020
  Blood glucose levels: 106 mg/dL
15 PM, 13 Sep. 2020
  Blood glucose levels: 125 mg/dL
15 PM, 14 Sep. 2020
  Blood glucose levels: 134 mg/dL
15 PM, 15 Sep. 2020
  Blood glucose levels: 98 mg/dL
15 PM, 16 Sep. 2020
  Blood glucose levels: 154 mg/dL
15 PM, 17 Sep. 2020
  Blood glucose levels: 90 mg/dL
15 PM, 18 Sep. 2020
  Blood glucose levels: 89 mg/dL
15 PM, 21 Sep. 2020
  Blood glucose levels: 109 mg/dL
21 PM, 10 Sep. 2020
  Blood glucose levels: 97 mg/dL
21 PM, 11 Sep. 2020
  Blood glucose levels: 103 mg/dL
21 PM, 12 Sep. 2020
  Blood glucose levels: 95 mg/dL
21 PM, 13 Sep. 2020
  Blood glucose levels: 80 mg/dL
21 PM, 14 Sep. 2020
  Blood glucose levels: 125 mg/dL
21 PM, 15 Sep. 2020
  Blood glucose levels: 83 mg/dL
21 PM, 16 Sep. 2020
  Blood glucose levels: 88 mg/dL
21 PM, 17 Sep. 2020
  Blood glucose levels: 77 mg/dL
21 PM, 18 Sep. 2020
  Blood glucose levels: 84 mg/dL
21 PM, 21 Sep. 2020
  Blood glucose levels: 74 mg/dL
